Assay results from PMC10377034, “Syntheses of 25-Adamantyl-25-alkyl-2-methylidene-1α,25-dihydroxyvitamin D3 Derivatives with Structure–Function Studies of Antagonistic and Agonistic Active Vitamin D Analogs” (Biomolecules, 2023).
Like-named read-outs stand apart in the source and are kept apart here.

Tests used:
[1] = tested on: human dedifferentiated fat (DFAT) cells; experiment: Osteogenic differentiation assay: ALP activity in human DFAT cells; type: cell-based; conditions: osteogenic medium, 100 nM, 7 days, natural hormone 1 = 100%
Method: Mature adipocytes from the adipose tissue of mammals such as humans and rodents can be dedifferentiated into pluripotent cells using ceiling culture. Dedifferentiated fat (DFAT) cells have potential applications in both regenerative medicine and injury healing, as well as mesenchymal stem cells, embryonic stem cells, and induced pluripotent stem cells. The osteogenic activity of vitamin D derivatives was assessed based on alkaline phosphatase (ALP) activity.
Samples of human subcutaneous adipose tissue were obtained from patients who underwent surgery in the Department of Pediatric Surgery at Nihon University Itabashi Hospital (Tokyo, Japan). The patients gave their written informed consent, and the Ethics Committee of Nihon University School of Medicine approved this study. We prepared dedifferentiated fat (DFAT) cells using the ceiling culture method, as described previously. Briefly, the adipose tissue (approximately 1 g) was cut into small pieces and digested with a 0.1% type I collagenase solution (Koken Co., Ltd., Tokyo, Japan). […] The cells that adhered to the upper surface of the flasks were cultured for conversion to dedifferentiated fat cells. […] Cells at passages 2–4 were used for differentiation experiments.
Cells were grown to confluency in 24-well plates and incubated for a week in DMEM containing 10% FBS, 100 nM dexamethasone (Merk), 10 mM β-glycerophosphate (Merk), and […] L-ascorbic acid-2-phosphate (Merk), with 100 nM of each compound. The induction medium was replaced on day 4. The alkaline phosphatase (ALP) activity in the cell lysates was determined on day 7 with a lab assay ALP kit (Fujifilm wako). The total protein content was determined with the BCA protein assay kit (Thermo Fisher Scientific). ALP levels were normalized to the total protein content.

[2] = tested on: VDR; conditions: literature values, cited from earlier work; for EC50: read-out: Transcriptional Activity EC50
[3] = tested on: VDR; conditions: cited from earlier work; for IC50: literature values, read-out: VDR Affinity IC50; for VDR affinity, % of that of 1: relative to 1,25(OH)2D3 (1)
[4] = tested on: VDR; conditions: antagonist activity for 1; read-out: Antagonistic Activity IC50; cited from earlier work

Row | Compound | ALP activity [1] | Transcriptional Activity % Efficacy of That of 1 [2] | IC50 [3] | VDR affinity, % of that of 1 [3] | EC50 [2] | IC50 [4]
1 | C=C1/C(=C\C=C2/CCC[C@]3(C)[C@@H]([C@H](C)CCCC(C)(C)O)CC[C@@H]23)C[C@@H](O)C[C@@H]1O [1,25(OH)2D3, 1α,25-dihydroxyvitamin D3] | 100% | – | – | – | – | –
2 | C=C1[C@H](O)CC(=C/C=C2\CCC[C@]3(C)[C@@H]([C@@H](C)/C=C/C[C@H](O)CC45CC6CC(CC(C6)C4)C5)CC[C@@H]23)C[C@H]1O [ADMI3, (25S)-26-adamantyl-25-hydroxy-2-methylene-22,23-didehydro-19,27-dinor-20-epi-vitamin D3] | – | 10% | 0.6 nM | 17% | – | –
3 | C=C1/C(=C\C=C2/CCC[C@]3(C)[C@@H]([C@H](C)CC#C[C@@H](O)C45CC6CC(CC(C6)C4)C5)CC[C@@H]23)C[C@@H](O)C[C@@H]1O [ADOR1, 25 S-sdamantyl-23-yne-26,27-dinor-1α,25-dihydroxyvitamin D(3)] | – | 87% | 0.24 nM | – | 0.03 nM | –
4 | C=C1/C(=C\C=C2/CCC[C@]3(C)[C@@H]([C@H](C)CC#C[C@H](O)C45CC6CC(CC(C6)C4)C5)CC[C@@H]23)C[C@@H](O)C[C@@H]1O [ADOR2] | – | > 52% | 0.6 nM | – | 5.7 nM | –
5 | C=C1[C@H](O)CC(=C/C=C2\CCC[C@]3(C)[C@@H]([C@@H](C)/C=C/C[C@@H](O)C45CC6CC(CC(C6)C4)C5)CC[C@@H]23)C[C@H]1O [ADTT] | – | 15% | 0.13 nM | 67% | 1 nM | 3 nM
6 | C=C1C[C@H](C[C@@H](C)[C@H]2CC[C@H]3/C(=C/C=C4/C[C@@H](O)C[C@H](O)C4=C)CCC[C@]23C)OC1=O [TEI-9647, (23S)-25-dehydro-1α-hydroxyvitamin D3-26,23-lactone] | – | – | 1 nM | – | 50 nM | 100 nM
7 | C=C1/C(=C\C=C2/CCC[C@]3(C)[C@@H]([C@H](C)/C=C/[C@@H](O)C4(C(=O)O/C=C\C(=O)OCC)CC4)CC[C@@H]23)C[C@@H](O)C[C@@H]1O [ZK168281] | – | – | – | – | – | 50 nM
